According to US9592307B2, “Compound and photoacoustic imaging contrast medium containing the compound” (CANON KABUSHIKI KAISHA, priority 2012, dated 2017):
Ends that are not written are not given here.

How the values were obtained:
[1] = system: Colon 26 mouse colon cancer cells containing artificially introduced HER2 genes; assay: Tumor accumulation of PEG including capture molecule, Colon 26 (HER2) versus Colon 26 (WT) tumors; format: in vivo; conditions: intravenous, 13 nmol in terms of ICG, 24 hours after administration
Source text: In the evaluation of tumor accumulation, female outbred line BALB/c Slc-nu/nu mouse (6 week-old at the time of purchase) (Japan SLC Inc.) was used. The mouse was adapted to an environment in which a diet and drinking water were able to be consumed freely for a week before the mouse was transplanted a tumor, while standard diet and bed were employed. About 1 week before an imaging experiment, 1×10^6 of Colon 26 mouse colon cancer cells (RIKEN) were subcutaneously injected into each of the right shoulder and the right thigh of the mouse and 1×10^6 of Colon 26 mouse colon cancer cells containing artificially introduced HER2 genes were subcutaneously injected into each of the left shoulder and the left thigh of the mouse. All tumors became established until the experiment and the weights of the mice were 17 to 22 g. […] The amount of dye in the cancer tissue was quantified by using IVIS (registered trademark) Imaging System 200 Series (XENOGEN) and measuring the fluorescent intensity of the solution of dye extracted from the tumor tissue and the standard solution for calibration in the state of the plastic tube. […]
In addition, ratios of the amount of accumulation into the Colon 26 mouse colon cancer cells containing artificially introduced HER2 genes relative to the amount of accumulation into the Colon 26 mouse colon cancer cells were calculated and are summarized in Table 12. […]

[2] = Retentivity in blood, Colon 26 tumor-bearing mice; format: in vivo, mouse; conditions: tail vein, 13 nmol dye, 24 hours after administration
Procedure: In order to examine the retentivity in blood and the tumor accumulation of the compound prepared as described above, M5k-ICG, M10k-ICG, M20k-ICG, M30k-ICG, M40k-ICG, and D20k-ICG2 were administered to tail veins of tumor-bearing mice which had been transplanted a Colon 26 cell line. The amount of administration was specified to be 13 nmol in terms of the amount of dye.
A blood sample was taken from a mouse 24 hours after administration, and the blood, 1% Triron, and DMSO were mixed at 2:9:9 in a plastic tube. The amount of dye in the blood was quantified by using IVIS (registered trademark) Imaging System 200 Series (produced by Caliper Life Science Inc.) and measuring the fluorescent intensity in the state of the plastic tube. The proportion of the amount of migration of the dye to the blood relative to the amount (dye 13 nmol) of administration (% injected dose: abbreviated to % ID) per unit weight of the blood is shown in Table 8 as the retentivity of the compound in blood (% ID/g). […]
An intravenous injection of 100 microliters (13 nmol in terms of dye) of M20k-ICGATT into a tumor-bearing mouse model was performed, where a Colon 26 cell was subcutaneously transplanted into the BALB/c Slc-nu/nu mouse. The accumulation in the Colon 26 cell mass and the blood 24 hours after the administration was evaluated by the method described in Example 12.

[3] = rat, ICG administered to the blood alone; cited from earlier work

Molecule | Colon26 (HER2)/Colon26 (WT) Ratio of amount of tumor accumulation [1] | Retentivity in blood [2] [% ID] | Time after administration at which photoacoustic signal is reduced to the same level as that of the blood [3]
pe-PEG20: PEG ME-200MA (MW 20,000) modified with ICG and peptide MARSGLGGKGSC (also: conjugated to PEG ME-200MA (20 kDa) together with ICG) | 0.76 |  | 
CC1(C)C(/C=C/C=C/C=C/C=C2\N(CCCCS(=O)(=O)O)c3ccc4ccccc4c3C2(C)C)=[N+](CCCCS(=O)(=O)[O-])c2ccc3ccccc3c21 [ICG, Indocyanine Green] |  | 0.16 | several tens of minutes
pe-PEG40: PEG ME-400MA (MW 40,000) modified with ICG and peptide MARSGLGGKGSC (also: conjugated to PEG ME-400MA (40 kDa) together with ICG) | 0.88 |  | 
